Measured values from publication PMC9122897, “SHR1032, a novel STING agonist, stimulates anti-tumor immunity and directly induces AML apoptosis” (Scientific Reports, 2022).
Read-outs that look alike come from different tables or passages of the source.

What was measured:
THP1-STING-R232 cells = test: CellTiter-Glo cell growth; type: cell-based, human
Method: (§1) (a–d) AML cells were treated with STING agonists and standard of care cytarabine, and cell viability was measured by CellTiter Glo in (a) THP1-STING-R232, (b) THP1-STING-KO, (c) MV-4-11 and (d) MOLM-16. (e) MV-4-11, MOLM-16 and THP1-STING-KO cells were stimulated with 1 µM of SHR1032 for the indicated time points. The amount of pTBK1, total TBK1, pSTING, total STING and α-tubulin was measured by Western blot. pSTING phosphorylated STING. THP1 reporter cells were treated for 24 h with a total of 100 k cells and 150 ul media in each well a 96-well plate. Following the incubation, 20 µl of supernatant was transferred to an opaque 96 well ½ area plate and incubated for 30 s with 50 µl of QUANTI-Luc substrate (InvivoGen) per manufacturer’s instructions. Luminescence signal was measured using Tecan infinite M1000. EC50 values were calculated using non-linear regression analysis of GraphPad Prism. Cell growth was monitored by CellTiter-Glo Luminescent Cell Viability Assay (Promega) per manufacture’s protocol. GI50 values were calculated using non-linear regression analysis of GraphPad Prism. Cell lysates for western blotting were made in RIPA buffer (Sigma) with Halt Protease and Phosphatase Inhibitors (Thermo Scientific). Antibodies against pSTING, TBK1, pTBK1 and tubulin were purchased from Cell Signaling Technologies, and anti-STING was purchased from Protein Tech.

MOLM-16 cells = test: CellTiter-Glo cell growth; type: cell-based; conditions: Homo sapiens, MOLM16; MOLM-16, CellTiter Glo
Method: as §1

MV4-11 cells = test: CellTiter-Glo cell growth; type: cell-based; conditions: Homo sapiens; MV4-11, CellTiter Glo
Method: as §1

human STING = biological target: T1, human STING (Homo sapiens, UniProt Q86WV6); test: Thermal shift assay; type: binding; conditions: human STING protein 5 uM; ligand bound vs apo
T1 construct: made in house; host or cells: E. coli
Excerpt: (§2) We sought to develop small molecule compounds with increased STING agonist activity against human STING. GSK reported a series of non-CDN small molecules, represented by compound 1[13], with good human STING agonistic activity. Based on our molecular modeling analysis, along with the reported CDN-STING crystal structures, we designed a novel series of fused tricyclic heterocycle compounds and analyzed their binding to human STING with thermal shift assays and the potency in activation of STING signaling with a reporter cellular assay (Supplementary Table S1). Thermal shift assays measure the difference between apo STING and ligand bound STING in the inflection point at which 50% of protein is thermally unfolded (ΔTm). […] The ability of compounds to activate the IRF reporter gene in the THP1 cells was also evaluated.
The melting temperature (Tm) of human STING was determined by calculating the temperature at the inflection point of the thermal melt curve generated on a Roche LightCycler 480 using 384 plate format and 465–590 nm filter set. […] Florescence was measured while ramping the plate temperature from 20 to 95 °C and the resulting data was processed using ROCHE data analysis software. Delta Tms were calculated by subtracting the Tm of untreated protein from ligand treated samples. […]

THP1 reporter cells = test: THP1 IRF luciferase reporter assay; type: cell-based; conditions: Homo sapiens, THP-1; IRF Lucia luciferase reporter, 24 h; read-out: THP1 reporter cell EC50
Excerpt: as §2
THP1 reporter cells were treated for 24 h with a total of 100 k cells and 150 ul media in each well a 96-well plate. […] Luminescence signal was measured using Tecan infinite M1000. EC50 values were calculated using non-linear regression analysis of GraphPad Prism. Cell growth was monitored by CellTiter-Glo Luminescent Cell Viability Assay (Promega) per manufacture’s protocol. GI50 values were calculated using non-linear regression analysis of GraphPad Prism. […]

THP1-STING-KO cells = test: CellTiter-Glo cell growth; type: cell-based, human
Method: as §1

[1] = tested on: MC38 mouse syngeneic colorectal adenocarcinoma; test: MC38 syngeneic tumor model; type: in vivo, C57BL/6 mouse; conditions: 50 µg intratumorally on day 1, 5, 8; after 21 days since the first dosing
Method: Figure 3 Robust cytokine induction and antitumor effects in vivo. (a,b) C57BL/6 mice were inoculated with mouse MC38 colon cancer cells in the left flank. When tumor volumes were 100 mm^3, they received intratumoral (IT) dose of 100 µg of SHR1032 on day 1, 5, 8 and 12 or IT dose of 50 µg ADU-S100 on day 1, 5, and 8, or vehicle, respectively. (a) Tumor volume was measured at different time points. Results are shown as mean tumor volume ± sem. (n = 8 animals per group). (b) Mouse bodyweight was measured at different time points. (c–f) C57BL/6 mice were inoculated with mouse MC38 colon cancer cells in the left flank. When tumor volumes were 100 mm^3, they received one IT dose of 100 µg of SHR1032 or 50 µg ADU-S100, or vehicle. (c) IFNβ, (d) IL-6 and (e) TNFα from both tumor and plasma was measured by ELISA 4 h after. (f) SHR1032 compound concentration in tumors were measured.
Human and Cynomolgous PBMC’s were thawed and spun down in Lymphocyte media (ZENBIO) and resuspended in media to 1.5 x 10^6 cells/ml density. Mouse RAW 264.7 cells were detached from the flask and resuspended in media to 1.5 x 10^6 cells/ml density. Then, 100 µl of media containing the cells was added to each well of a 96-well plate containing compound in 50 µl of media. Plates were incubated for 5 h at 37 °C and supernatant was collected for ELISA analysis. Human and monkey IFN-β protein concentration was measured using human IFN-β Quantikine ELISA Kits (R&D Systems) per manufacture’s protocol. Mouse IFN-β was measured using mouse IFN-β Quantikine ELISA Kits (R&D Systems) per manufacture’s protocol. Mouse TNFα, IFN-β and IL-6 in the tumor lysates and plasma was measured by Quantikine ELISA Kits (R&D Systems) per manufacture’s protocol.
Female C57BL/6 mice, aged between 8 and 10 weeks old, were purchased from Charles River Lab. MC38 mouse colorectal cancer cells were resuspended as single cell solution in PBS at a concentration of 5 × 10^6 cells/ml. One hundred µl of cell suspension were implanted in the right flank of mice subcutaneously. Tumor size was measured by a caliper in three dimensions and its volume was then calculated according to the following formula: Tumor Volume (mm^3) = l * w * h * 0.5236, where l = length, w = width and h = height in mm for a tumor. When the average tumor volume reached around 100 mm^3, the mice were randomly assigned into three groups (n = 8) and each group of mice received one regimen. This day was assigned as day 0 for the study. […] Tumor volume and body weight were measured 3 times per week throughout the study. […] Cytokines and SHR1032 concentration in the plasma and tumor tissues were analyzed. […]

T1 sequence (Q86WV6 155-341 limits assumed): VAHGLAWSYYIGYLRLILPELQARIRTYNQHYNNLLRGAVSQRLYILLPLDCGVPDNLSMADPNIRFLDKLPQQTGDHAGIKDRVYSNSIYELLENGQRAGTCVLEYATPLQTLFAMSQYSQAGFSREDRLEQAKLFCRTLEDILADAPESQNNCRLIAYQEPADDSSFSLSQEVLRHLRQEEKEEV

Work on `Nc1ccn([C@@H]2O[C@H](CO)[C@@H](O)[C@@H]2O)c(=O)n1` [cytarabine, reference compound] yielded a GI50 (THP1-STING-R232 cells; Homo sapiens) of 100 nM, a GI50 (MOLM-16 cells) of 450 nM and a GI50 (MV4-11 cells) of 340 nM.

For `C=CC[C@H]1COc2cc(C(N)=O)cc3nc(NC(=O)c4cc(C)nn4CC)n1c23` [Compound 2], the “Thermal shift ∆Tm” value (human STING) was 5.7 °C and the EC50 (THP1 reporter cells) was 1600 nM.

With `Nc1ncnc2c1ncn2[C@@H]1O[C@@H]2COP(=O)([S-])O[C@@H]3[C@H](O)[C@@H](COP([O-])(=S)O[C@H]2[C@H]1O)O[C@H]3n1cnc2c(N)ncnc21.[Na+].[Na+]` (some centres unmarked) [ADU-S100, reference compound] the cell growth inhibition (THP1-STING-KO cells) was “not detectable”, the GI50 (THP1-STING-R232 cells) was 9440 nM and the tumor response [1] was “complete tumor regression”.
